Source: ChEMBL document CHEMBL1201862, “PubChem BioAssay data set” (2004)
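Tested at 5 concentrations; 48 h exposure; 96-well plates; endpoints linearly interpolated, else capped at highest concentration. GI50 is the concentration that inhibits growth by half.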 Active and inactive are the calls of the source. Cut-off read from the data, not from the text of the source: active = GI50 up to about 1.1 µM and inactive = higher.

Key:
Assay in all cases: NCI tumour cell line growth inhibition, 48 h
[1] = tested on: 786-0
[2] = tested on: A498
[3] = tested on: A549
[4] = tested on: ACHN
[5] = tested on: BT-549
[6] = tested on: CAKI-1
[7] = tested on: CCRF-CEM
[8] = tested on: COLO 205
[9] = tested on: DU-145
[10] = tested on: EKVX
[11] = tested on: HCC 2998
[12] = tested on: HCT-116
[13] = tested on: HCT-15
[14] = tested on: HL-60
[15] = tested on: HOP-62
[16] = tested on: HOP-92
[17] = tested on: HT-29
[18] = tested on: Hs-578T
[19] = tested on: IGROV-1
[20] = tested on: K562
[21] = tested on: KM12
[22] = tested on: LOX IMVI
[23] = tested on: M14
[24] = tested on: MCF7
[25] = tested on: MDA-MB-231
[26] = tested on: MDA-MB-435
[27] = tested on: MDA-N
[28] = tested on: MOLT-4
[29] = tested on: NCI-H23
[30] = tested on: NCI-H460
[31] = tested on: NCI-H522
[32] = tested on: NCI/ADR-RES
[33] = tested on: OVCAR-3
[34] = tested on: OVCAR-4
[35] = tested on: OVCAR-5
[36] = tested on: OVCAR-8
[37] = tested on: PC-3
[38] = tested on: RXF 393
[39] = tested on: SF-268
[40] = tested on: SF-295
[41] = tested on: SF-539
[42] = tested on: SK-MEL-28
[43] = tested on: SK-MEL-2
[44] = tested on: SK-MEL-5
[45] = tested on: SN12C
[46] = tested on: SNB-19
[47] = tested on: SNB-75
[48] = tested on: SR
[49] = tested on: SW-620
[50] = tested on: T47D
[51] = tested on: TK-10
[52] = tested on: U-251
[53] = tested on: UACC-257
[54] = tested on: UACC-62
[55] = tested on: UO-31
[56] = tested on: Malme-3M
[57] = tested on: NCI-H226
[58] = tested on: RPMI-8226
[59] = tested on: SK-OV-3

Measured: GI50

CC1(C)C2CCC1(C)C(OC(=O)/C=C/C(=O)OC1CC3CCC1(C)C3(C)C)C2 (configuration not stated)
inactive: [1] 72.9 µM | [2] > 100 µM | [3] > 100 µM | [4] > 100 µM | [5] 44.7 µM | [6] > 100 µM | [7] 11.4 µM | [8] 75.2 µM | [9] > 100 µM | [10] > 100 µM | [11] 64.4 µM | [12] 56.9 µM | [14] 16.9 µM | [15] > 100 µM | [16] 24.8 µM | [17] 40 µM | [18] 63 µM | [19] > 100 µM | [20] 31.9 µM | [21] > 100 µM | [22] 21.7 µM | [23] 76.9 µM | [24] 19.3 µM | [25] > 100 µM | [26] 67.3 µM | [27] 60.4 µM | [28] 16.9 µM | [29] 47.9 µM | [30] 67.9 µM | [31] 41 µM | [32] > 100 µM | [33] 48.8 µM | [34] > 100 µM | [35] > 100 µM | [36] > 100 µM | [37] > 100 µM | [38] 58.9 µM | [39] > 100 µM | [40] > 100 µM | [41] > 100 µM | [42] 18.9 µM | [43] 61.7 µM | [44] 17.9 µM | [45] 82.2 µM | [46] 51.4 µM | [48] 20.1 µM | [49] 38.1 µM | [50] > 100 µM | [51] > 100 µM | [52] 46.1 µM | [53] 31 µM | [54] 31.2 µM | [55] > 100 µM
active: [47] 0.902 µM
68.7 µM: [13]

COC1CC(OC2OC(CO)C(O)C(O)C2O)/C(=C\C#N)C(O)C1OC (configuration not stated)
inactive: [1] > 100 µM | [2] > 100 µM | [3] > 100 µM | [4] > 100 µM | [5] > 100 µM | [6] > 100 µM | [7] > 100 µM | [8] > 100 µM | [9] > 100 µM | [10] > 100 µM | [11] > 100 µM | [12] > 100 µM | [14] > 100 µM | [15] > 100 µM | [16] > 100 µM | [17] > 100 µM | [18] > 100 µM | [19] > 100 µM | [21] > 100 µM | [22] > 100 µM | [23] > 100 µM | [24] > 100 µM | [25] > 100 µM | [26] > 100 µM | [27] > 100 µM | [28] > 100 µM | [56] > 100 µM | [57] > 100 µM | [29] > 100 µM | [30] > 100 µM | [31] > 100 µM | [32] > 100 µM | [33] > 100 µM | [34] > 100 µM | [35] > 100 µM | [36] > 100 µM | [37] > 100 µM | [58] > 100 µM | [38] > 100 µM | [39] > 100 µM | [40] > 100 µM | [41] > 100 µM | [42] > 100 µM | [43] > 100 µM | [44] > 100 µM | [59] > 100 µM | [45] > 100 µM | [46] > 100 µM | [48] > 100 µM | [49] > 100 µM | [50] > 100 µM | [51] > 100 µM | [52] > 100 µM | [53] > 100 µM | [54] > 100 µM | [55] > 100 µM
> 100 µM: [13]
